# Laboratory results reported in US20090264433A1, “Compounds, Compositions and Methods Comprising Triazine Derivatives” (Institute for OneWorld Health, priority 2008, published 2009).
# Structures can show the parent of a compound that is named as a salt.
# Biological target: T1, CFTR channel in human colonic T84 cells (Homo sapiens, UniProt P13569)
# T1 construct: results in the phosphorylation and opening of CFTR anion channels; host or cells: human colonic T84 cells
# Experiment: T84 assay (FLIPR membrane potential dye, forskolin/IBMX-stimulated CFTR)
# Format: cell-based
# Settings: average of at least 2 runs unless annotated n = 1
# Procedure, shortened: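 T84 cells (25,000/well, grown overnight) were washed in HBSS with 10 mM Hepes, then loaded with FLIPR Red membrane potential dye for 45 min with or without compound. CFTR was stimulated with 10 μM forskolin plus 100 μM IBMX after a 10 s baseline. Depolarization was tracked as a fluorescence increase, read every second for 150 s.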
# T1 sequence (P13569 whole entry): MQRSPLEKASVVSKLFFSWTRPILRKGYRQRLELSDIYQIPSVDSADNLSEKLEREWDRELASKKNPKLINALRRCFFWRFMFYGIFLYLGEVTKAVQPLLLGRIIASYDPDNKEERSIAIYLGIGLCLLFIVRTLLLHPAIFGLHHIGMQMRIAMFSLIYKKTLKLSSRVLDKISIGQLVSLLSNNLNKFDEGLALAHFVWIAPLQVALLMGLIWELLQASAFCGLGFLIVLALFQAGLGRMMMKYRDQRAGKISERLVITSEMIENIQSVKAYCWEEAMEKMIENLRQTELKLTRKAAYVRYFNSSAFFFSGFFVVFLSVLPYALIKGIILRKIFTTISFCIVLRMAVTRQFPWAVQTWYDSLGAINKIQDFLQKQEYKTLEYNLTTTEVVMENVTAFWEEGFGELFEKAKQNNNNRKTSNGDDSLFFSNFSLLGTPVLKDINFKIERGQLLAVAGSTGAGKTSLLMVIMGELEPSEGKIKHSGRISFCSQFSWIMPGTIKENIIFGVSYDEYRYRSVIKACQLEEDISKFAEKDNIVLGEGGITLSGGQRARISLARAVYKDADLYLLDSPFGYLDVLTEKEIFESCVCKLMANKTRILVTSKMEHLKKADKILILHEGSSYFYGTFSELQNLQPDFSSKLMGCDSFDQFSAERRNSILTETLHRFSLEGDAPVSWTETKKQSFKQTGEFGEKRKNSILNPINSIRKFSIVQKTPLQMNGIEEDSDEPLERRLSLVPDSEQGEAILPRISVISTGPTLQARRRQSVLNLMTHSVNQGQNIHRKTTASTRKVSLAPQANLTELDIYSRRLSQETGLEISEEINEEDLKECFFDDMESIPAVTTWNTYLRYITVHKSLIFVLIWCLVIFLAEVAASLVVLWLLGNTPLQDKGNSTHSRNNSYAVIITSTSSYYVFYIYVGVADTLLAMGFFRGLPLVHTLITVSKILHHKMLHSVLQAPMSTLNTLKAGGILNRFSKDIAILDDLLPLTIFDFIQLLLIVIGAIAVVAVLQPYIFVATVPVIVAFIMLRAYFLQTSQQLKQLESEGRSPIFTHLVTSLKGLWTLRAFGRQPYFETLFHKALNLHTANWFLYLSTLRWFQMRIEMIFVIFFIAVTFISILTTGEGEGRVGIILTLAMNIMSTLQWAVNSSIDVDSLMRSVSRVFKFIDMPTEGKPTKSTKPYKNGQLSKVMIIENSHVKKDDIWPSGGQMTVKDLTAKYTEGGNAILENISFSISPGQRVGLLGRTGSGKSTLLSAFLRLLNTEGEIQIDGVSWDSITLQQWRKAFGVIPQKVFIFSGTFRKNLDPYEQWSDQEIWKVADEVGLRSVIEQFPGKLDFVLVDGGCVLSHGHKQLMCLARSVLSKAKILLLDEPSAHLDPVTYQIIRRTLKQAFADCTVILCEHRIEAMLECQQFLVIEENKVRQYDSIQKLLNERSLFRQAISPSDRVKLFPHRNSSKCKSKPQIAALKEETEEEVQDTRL
row,SMILES,IC50
1,"O=C(c1ccccc1)N1CCN(Cc2ccc(COc3ncc(-c4cc(Cl)c(O)c(Cl)c4)nn3)cc2)CC1 [Compound 218, (4-(4-((6-(3,5-dichloro-4-hydroxyphenyl)-1,2,4-triazin-3-yloxy)methyl)benzyl)piperazin-1-yl)(phenyl)methanone]",3.8 µM
2,"Oc1c(Cl)cc(-c2cnc(OCc3ccc(CN4CCC(C(O)(c5ccccc5)c5ccccc5)CC4)cc3)nn2)cc1Cl [Compound 174, 2,6-dichloro-4-(3-(4-((4-(hydroxydiphenylmethyl)piperidin-1-yl)methyl)benzyloxy)-1,2,4-triazin-6-yl)phenol, formate salt]",15.1 µM
3,"Oc1c(Br)cc(-c2cnc(COc3cccc4ccccc34)nn2)cc1Br [Compound 33, 2,6-Dibromo-4-(3-((naphthalen-1-yloxy)methyl)-1,2,4-triazin-6-yl)phenol]",5.39 µM
4,"Oc1c(Br)cc(-c2cnc(OCc3ccc(Cl)cc3Cl)nn2)cc1Br [Compound 15, 2,6-dibromo-4-(3-(2,4-dichlorobenzyloxy)-1,2,4-triazin-6-yl)phenol]",0.94 µM
5,"Oc1c(Br)cc(-c2cnc(Oc3ccc(Cl)c(Cl)c3)nn2)cc1Br [Compound 21, 2,6-dibromo-4-(3-(3,4-dichlorophenoxy)-1,2,4-triazin-6-yl)phenol]",2.12 µM

# Continued, values first:
row,IC50,SMILES
1,28.5 µM,"Oc1c(Cl)cc(-c2cnc(OCc3ccc(CNCc4ccc(F)cc4)cc3)nn2)cc1Cl [Compound 164, 2,6-dichloro-4-(3-(4-((4-fluorobenzylamino)methyl)benzyloxy)-1,2,4-triazin-6-yl)phenol]"
2,1.92 µM,"Oc1c(Cl)cc(-c2cnc(OCc3ccc(CN4CCN(c5ccc(F)cc5F)CC4)cc3)nn2)cc1Cl [Compound 151, 2,6-dichloro-4-(3-(4-((4-(2,4-difluorophenyl)piperazin-1-yl)methyl)benzyloxy)-1,2,4-triazin-6-yl)phenol]"
3,4.64 µM,"CNC(=O)C1Cc2ccccc2CN1Cc1ccc(COc2ncc(-c3cc(Cl)c(O)c(Cl)c3)nn2)cc1 (centres unmarked) [Compound 185, 2-(4-((6-(3,5-dichloro-4-hydroxyphenyl)-1,2,4-triazin-3-yloxy)methyl)benzyl)-N-methyl-1,2,3,4-tetrahydroisoquinoline-3-carboxamide]"
